The values that follow come from patent US5589568A (priority 1994, dated 1996).

One may read the EC50 as the concentration needed to bring the measured effect to its halfway point.

Data set [1] is described as follows: critical micelle concentration. In kind it is physicochemical. The text has this:
MP was synthesized and purified as described by Saito and his colleagues (Chem. Pharm. Bull., 32:2187-2193, 1984, incorporated herein by reference). The MP analogs listed in Table I were synthesized by standard solid phase methods and purified by C-4 HPLC using an acetonitrile gradient in 0.1% trifluoroacetic acid. […] The identity of the peptides was monitored by 400-MHz or 250-Mhz ^1 H NMR spectroscopy for MP and MP-X and by mass spectroscopy for the other analogs. […] BAC was purchased from Sigma, and other alkylammonium compounds were from Aldrich. The critical micelle concentration of BAC was measured in the buffer used for GTPase assays (see below) using 1,6-diphenyl-1,3,5-hexatriene according to the method of Schrock and Gennis, (J. Biol. Chem, 252:5990-5995, 1977, incorporated herein by reference). The critical micelle concentration was approximately 20 μM.

Data set [2] relates to Gi. In words: release of [α-32P]GDP from Gi (GDP exchange). In kind it is biochemical, rabbit. Here is the method: FIG. 1. Stimulation of GDP/GTP exchange by analogs of MP. The release of [α-^32 P]GDP from Gi was measured at 30° C. in the presence of the concentrations of several different MP analogs whose structures are listed in Table I: O, Mas7; Δ, Mas8; .tangle-solidup.Mas9; .quadrature., Mas19; .oval-solid., MP; .box-solid., MP-X; .gradient., MAS14; .tangle-soliddn., Mas6. First order dissociation rate constants (kdiss) were determined from duplicate four-point time courses as described under "Experimental Procedures."
Purification of αo and βγ was completed by chromatography on DEAE-Sephacel that was eluted with a gradient of 0-250 mM NaCl in the presence of 0.6% Lubrol and AMF. AMF was removed by chromatography on hydroxyapatite and Sephadex G-25 as described by Sternweis, et al., 1981, incorporated herein by reference. Gi was purified as the αβγ trimer from rabbit liver as reported by Bokoch, et al., 1984, incorporated herein by reference. The Gi used in this study could be recognized on a Western blot by anti-Gi -1 and anti-Gi -3 antibodies but not by anti-Gi -2 antibody, as documented by Mumby, et al., 1983, incorporated herein by reference. Purified recombinant αi,1 was synthesized in E. coli prepared to the specifications of Linder, incorporated herein by reference. During purification, G protein α subunits were assayed by [^35 S] GTPγ S binding according to the method of Higashijima, 1987, incorporated herein by reference). By subunits were assayed according to their ability to deactivate Gs, as detailed by Northup, 1983, incorporated herein by reference.
G proteins were reconstituted into phospholipid vesicles composed of dioleoyl-PC/bovine brain PS/1-palmitoyl,2-oleoyl-PE (3:4:3) as reported previously by Higashijima et al., 1988, incorporated herein by reference.
To measure the MP-catalyzed dissociation of [α-^32 P]GDP or [^35 S]-GTPγS, labeled nucleotide was first bound to G protein (approximately […] in 50 μl) by incubation of the Lubrol-solubilized G protein with a molar excess of nucleotide in assay buffer that contained 10 mM MgSO4 and 0.1% Lubrol. Incubation was for 20 min at 20° C. (for Go) or for 30 min at 30° C. (for Gi), In the case of [α-^32 P]GDP, EDTA was then added to 12 mM. […] Bound nucleotide was determined by binding to nitrocellulose filters as described (Ferguson, 1986), and incorporated herein by reference. […] Data were analyzed using a nonlinear least squares fitting program.

The test system of data set [3] is Gi. Kind of data set: steady state GTPase activity of Gi in phospholipid vesicles.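 Also: Steady-state GTP hydrolysis by Gi measured in a detergent-free buffer containing 1.1 mM MgSO4 plus the specified guanine nucleotide.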 In kind it is biochemical, rabbit.
Procedure: (§1) Unless noted otherwise, assays of steady state GTP hydrolysis and of the binding and dissociation of guanine nucleotides were carried out in the buffer described previously, but without detergent and with 1.1 mM MgSO4 and the nucleotide specified in the text. When necessary, the concentration of free Mg^2+ was adjusted using EDTA buffers as described previously by Higashijima, 1987, and incorporated herein by reference.
The concentration of free Mg^2+ in assay medium that contains 5 mM EDTA and no added Mg^2+ is estimated to be 0.1-0.2 nM according to Brandt et al., 1988 and 1983.
(§2) Apparent affinity (af.) and apparent efficacy (ef.) were estimated by EC50 and maximum turnover number of GTPase activity.
Data set [4] addresses T1, Go (Bos taurus, UniProt P08239).
T1 construct: proteins were extracted from bovine cerebral cortical membranes; from tissue; host or cells: bovine brain (cerebral cortical membranes)
Kind of data set: steady state GTPase activity of Go in phospholipid vesicles. Format: biochemical, bovine.
Procedure: as §1, §2

Another data set concerns the target Gs (Homo sapiens, UniProt P63092). In words: steady state GTPase activity of Gs. Conditions: Table IV; for EC50: read-out: Gs af. (apparent affinity, estimated by EC50 of GTPase activity). Format: biochemical. An outline of the steps: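 Steady-state GTP hydrolysis by Gs was run in buffer without detergent, with 1.1 mM MgSO4 and the specified nucleotide, and free Mg^2+ set with EDTA buffers where needed. Activity is expressed as molar turnover number. Apparent affinity and efficacy were estimated from the EC50 and the maximal turnover number of GTPase activity.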

A short description of data set [5]: lytic capacity / toxicity of mastoparan-based peptides.
Data set [6] has as its target T1, Go. In words: rate of hydrolysis of protein-bound [γ-32P]GTP. In kind it is biochemical, bovine. The procedure:
The rate of hydrolysis of protein-bound [γ^32 P]GTP was measured essentially as described previously (Higashijima, 1987) at 20° C. in assay medium that contained 2 ppm Lubrol 12A9. Go (10 nM) was incubated in assay medium for 16 min with 100 nM [γ-^32 P]GTP to allow nucleotide to bind. Hydrolysis was initiated by the addition of 1.3 mM MgSO4. Excess unlabeled GTP was also added such that only a single turnover was measured. The production of [^32 P]Pi was measured as described by Higashijima, 1987.

A short description of data set [7]: circular dichroism, fractional helical content. Conditions: 20 μM peptide, pH 7.5, 25° C. Format: physicochemical. The procedure:
CD spectra of peptides were measured using an Aviv model 60DS spectrometer at 25° C. in 1-mm pathlength cells. Spectra were scanned at 1 nm intervals for 3 s, and three scans were averaged. Peptides were dissolved at 20 μM in 5 mM Tris-Cl, pH 7.5, in the presence or absence of sonicated 1 mM 1-palmitoyl,2-oleoylphosphatidylcholine. Fractional helical content for each peptide was calculated according to the assumption that, for 100% helix and 14 peptide bonds, θ222 =36,000 (1-2.6/14).
Fractional helical contents of some of the peptides

Data set [8] has as its system muscarinic cholinergic receptor. In kind it is binding, porcine.

Where no end group is shown, it is not given here.

Chain of Gs (P63092 whole entry): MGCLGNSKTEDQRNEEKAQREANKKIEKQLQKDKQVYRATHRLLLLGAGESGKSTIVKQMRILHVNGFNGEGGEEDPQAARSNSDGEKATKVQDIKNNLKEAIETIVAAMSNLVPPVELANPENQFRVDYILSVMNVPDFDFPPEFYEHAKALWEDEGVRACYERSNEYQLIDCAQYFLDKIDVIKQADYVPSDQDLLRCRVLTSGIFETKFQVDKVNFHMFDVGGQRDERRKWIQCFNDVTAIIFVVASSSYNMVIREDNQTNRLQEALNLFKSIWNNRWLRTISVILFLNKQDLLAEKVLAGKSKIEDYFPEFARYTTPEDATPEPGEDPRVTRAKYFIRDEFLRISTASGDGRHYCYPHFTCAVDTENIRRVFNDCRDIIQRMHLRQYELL
T1 sequence (P08239 2-354 limits assumed): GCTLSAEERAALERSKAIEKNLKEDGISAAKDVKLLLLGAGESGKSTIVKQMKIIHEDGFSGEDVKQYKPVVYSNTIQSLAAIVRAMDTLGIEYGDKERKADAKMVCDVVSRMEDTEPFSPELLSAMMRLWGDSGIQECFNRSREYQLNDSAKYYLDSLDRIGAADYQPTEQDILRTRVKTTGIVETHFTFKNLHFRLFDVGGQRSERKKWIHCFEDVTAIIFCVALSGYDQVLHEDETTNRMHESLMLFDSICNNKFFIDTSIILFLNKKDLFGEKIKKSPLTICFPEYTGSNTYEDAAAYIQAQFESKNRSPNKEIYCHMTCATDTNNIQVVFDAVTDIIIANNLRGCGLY
T1 sequence (P62871 2-340 partner limits assumed): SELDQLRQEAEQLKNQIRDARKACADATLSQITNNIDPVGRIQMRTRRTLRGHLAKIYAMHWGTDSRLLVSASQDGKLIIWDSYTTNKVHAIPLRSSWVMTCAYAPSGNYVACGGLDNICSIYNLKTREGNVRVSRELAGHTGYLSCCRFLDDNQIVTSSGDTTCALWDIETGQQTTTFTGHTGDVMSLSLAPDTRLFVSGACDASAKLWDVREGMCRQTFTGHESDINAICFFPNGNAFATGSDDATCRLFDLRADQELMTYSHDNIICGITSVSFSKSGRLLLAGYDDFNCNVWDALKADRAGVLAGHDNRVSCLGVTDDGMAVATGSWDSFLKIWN
T1 sequence (P63212 2-68 partner limits assumed): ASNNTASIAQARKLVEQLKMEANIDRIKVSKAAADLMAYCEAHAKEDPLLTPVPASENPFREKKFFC

With `CCCCCCCCCCCCC[N+](C)(C)Cc1ccccc1` [BAC (C-12), benzalkonium chloride], the critical micelle concentration in data set [1] (as restated) is 20 µg/mL; in data set [1] (buffer used for GTPase assays, 1,6-diphenyl-1,3,5-hexatriene), “approximately 20 μM”. Also, the “BAC concentration range in which the EC50 for Mas7 increased sharply” value with Gi [2] (Gi, FIG. 4B) was in the range of 1 to 3 mg/L. Also, the “inhibition of Mas7-stimulated GDP exchange on Gi” value with Gi [2] (intermediate concentrations of Mas7) was at most 60%. The “effect on basal GDP exchange rate of Gi” value with Gi [2] (no Mas7) is recorded as “no detectable inhibition”. For the same compound, the “effect on stimulation of Gi GTPase activity by Mas7 and MP” value with Gi [3] (3 μg/ml BAC, 10 μM Mas7 (FIG. 3)) is on record as “antagonized”. Further, the “Turnover number Gi 10 μg/ml” value with Gi [3] (10 μg/ml amine, 30 min at 30° C.) was determined as 0.08 min⁻¹. Besides, in the data set with Gi [3] (100 μg/ml amine, 30 min at 30° C.), the “Turnover number Gi 100 μg/ml” value is 0.04 min⁻¹. For the same compound, the “Turnover number Go 10 μg/ml” value at Go [4] (10 μg/ml amine, 15 min at 20° C., PE/PC/PS vesicles) was determined as 0.33 min⁻¹. Further, the “Turnover number Go 100 μg/ml” value at Go [4] (100 μg/ml amine, 15 min at 20° C.) was 0.8 min⁻¹. Moreover, the “maximal stimulation of Go” value at Go [4] (at about 30 μg/ml (~0.1 mM) BAC, FIG. 5) was found to be 20 fold.

Consider INLKALAALKKALL-NH2 [ER25], for which the EC50 at Gs and on Go [4] was 10 to 30 µM each time. In addition, the “toxicity (in words)” value in [5] is “least toxic”.

`CC[C@H](C)[C@H](N)C(=O)N[C@@H](CC(N)=O)C(=O)N[C@@H](CC(C)C)C(=O)N[C@@H](CCCCN)C(=O)N[C@@H](C)C(=O)N[C@@H](CC(C)C)C(=O)N[C@@H](C)C(=O)N[C@@H](C)C(=O)N[C@@H](CC(C)C)C(=O)N[C@@H](C)C(=O)N[C@@H](CCCCN)C(=O)N[C@@H](CCCCN)C(=O)N[C@H](C(=O)N[C@@H](CC(C)C)C(N)=O)[C@@H](C)CC` [MP]: the “effect on rate of hydrolysis of bound GTP” value on Go [6] is given as “did not alter”. The “stimulation of Gi” value in the data set on Gi [2] (GDP exchange assay, typical) was “about 15 fold”; in the data set on Gi [3] (GTPase assay, typical), “about 15 fold”. Besides, the “% α Helix - PC” value in [7] (absence of 1 mM phospholipid) came out at 19%. The “% α Helix + PC” value in data set [7] (presence of 1 mM phospholipid) was 61%. Moreover, the “Gs ef. (apparent efficacy, maximum turnover number of GTPase activity)” value at Gs is listed as “F (Fair (F): 2-5 fold)”. In addition, the EC50 was 3 to 10 µM on Gs; 10 to 30 µM at Gi [3] (Table IV, read-out: G1 af. (apparent affinity, estimated by EC50 of GTPase activity)); 3 to 10 µM on Go [4]. In data set [8], the “effect on affinity of the receptor for the antagonist [3H]QNB” value is “did not alter”. Further, the “effect on the receptor's affinity for acetylcholine” value in data set [8] (30 μM peptide, […]) is on record as “decreased the receptor's affinity for acetylcholine”. The “GTPase Gi 10 μM” value in the data set on Gi [3] (10 μM peptide, 30 min at 30° C., PE/PC/PS vesicles) was 0.19 min⁻¹. Also, in the data set with Gi [3] (100 μM peptide, 30 min at 30° C., PE/PC/PS vesicles), the “GTPase Gi 100 μM” value came to 0.47 min⁻¹. The “G1 ef. (apparent efficacy, maximum turnover number of GTPase activity)” value in the data set with Gi [3] (Table IV) is “E (Excellent (E): 30-10 fold)”. The “GTPase Go 10 μM” value at Go [4] (10 μM peptide, 15 min at 20° C., PE/PC/PS vesicles) is 0.59 min⁻¹. Further, the “GTPase Go 100 μM” value on Go [4] (100 μM peptide, 15 min at 20° C., PE/PC/PS vesicles) came out at 0.95 min⁻¹. Also, the “Goo ef. (apparent efficacy, maximum turnover number of GTPase activity)” value at Go [4] (Table IV) is “E (Excellent (E): 30-10 fold)”.
